We go through three molecules from patent US10463649B2, “Inhibitors of Mc1-1 as drugs to overcome resistance to BRAF inhibitors and MEK inhibitors” (Texas Tech University System, priority 2015, dated 2019).

pIC50: −log10 of the molar value. A value given as a limit tells only on which side of the number the result lay.

Data set [1] has as its system Mcl-1. Kind of data set: Western blotting for Mcl-1 and Cl.PARP in melanoma cells treated with PL. It counts as cell-based. The settings on record: SK-MEL-28 and Sk-MEL-2 cells, 5, 7.5 and 10 μM PL, 48 hours. In general terms: A western blot detects proteins with antibodies after separation by electrophoresis.
Data set [2] concerns SK-MEL-28 cells. Kind of data set: Cell viability / cytotoxicity by sulforhodamine B (SRB) assay in SK-MEL-28 cells. (The SRB assay estimates cell density from bound dye.)
Data set [3] deals with SK-MEL-28-DR cells. Description: SRB cytotoxicity in dabrafenib resistant SK-MEL-28-DR cells. The format is cell-based. Conditions: 72 hours. As to the method: (§1) A375, SK-MEL-28, SK-MEL-5 and WM-239 were treated (FIG. 7A) dabrafenib and trametinib and (FIG. 7B) vemurafenib and trametinib for 72 hours. Following the treatment, Mcl-1 expression was analyzed by western blotting.
(§2) Generation of BRAF-inhibitor resistant cell lines. Vemurafenib resistant clones of A375 and SK-MEL-28 were generated by continuous exposure of cells to escalating concentrations of vemurafenib over a period of one year. The cells were treated with vemurafenib for 72 hours after which fresh media was added to the cells. In all, cells were exposed weekly to two treatments of vemurafenib for 72 hours each with a 24 hour recovery period between the treatments. […] Similarly, dabrafenib resistant cells were cultured by incubating the cells with increasing concentrations of the drug for a period of 3 months as described above. The fold resistant was intermittently evaluated by cytotoxicity analysis. Vemurafenib resistant cell lines were referred to as SK-MEL-28-R or A375-R and dabrafenib resistant cell lines were referred to as A375-DR, SK-MEL-28-DR or WM-239-DR. […] Here, A375 cells were injected subcutaneously in nude mice. When palpable tumors were formed, the mice were orally treated with 30 mg/kg vemurafenib twice a day. After a month, the tumors the resisted vemurafenib treatments were extracted and cultured in vitro.

In data set [4] the test system is SK-MEL-28 cells transfected with Mcl-1 plasmid. Kind of data set: SRB cell survival in SK-MEL-28 cells transfected with Mcl-1 plasmid. It counts as cell-based. The settings on record: SK-MEL-28 transfected with Mcl-1 plasmid, 10 nM dabrafenib, 2 nM trametinib or the combination, 72 hours. As to the method:
FIG. 3A (A375 cells) and FIG. 3B SK-MEL-28 cells untransfected or transfected with Mcl-1 plasmid were treated with 0.2 μM and 0.4 μM vemurafenib for 72 hours. The cell survival was evaluated by sulforhodamine B assay. […] FIG. 3E A375 and A375-Mcl-1+/+ or FIG. 3F, SK-MEL-28 and SK-MEL-28-Mcl-1+/+ were treated with 0.2 μM and 0.4 μM vemurafenib for 72 hours. The cell survival was evaluated by sulforhodamine B assay.
FIG. 8A (A375) and FIG. 8B (SK-MEL-28) untransfected or transfected with Mcl-1 plasmid were treated with 10 nM dabrafenib or 2 nM trametinib for 72 hours. FIG. 8C A375 and FIG. 8D SK-MEL 28 cells untransfected or transfected with Mcl-1 plasmid were treated with 400 nM vemurafenib or 2 nM trametinib for 72 hours. The cell survival was evaluated by sulforhodamine B assay.
Mcl-1 overexpression. A375 or SK-MEL-28 cells were transiently or stably transfected with plasmid overexpressing Mcl-1 by nucleofection kit (Lonza, Basel, Switzerland) according to manufacturer's protocol and previously described by the inventors (26). Briefly, 2×10^6 cells were suspended in a reaction mixture from the kit specific to the cell line (Kit V for A375 and Kit R for SK-MEL-28 cells). The cells were transferred to the cuvettes and nucleofected using the nucleofector instrument (Amaxa, Cologne, Germany). […]

Data set [5] concerns WM-239-DR cells. Description: SRB cytotoxicity in dabrafenib resistant WM-239-DR cells. It counts as cell-based. The settings on record: 72 hours. As to the method: as §1, §2
Data set [6] deals with WM-239 cells. Description: SRB cytotoxicity in WM-239 cells. The format is cell-based. Conditions: 72 hours, read-out: IC50 of dabrafenib.
In data set [7] the test system is A375 cells. Kind of data set: Cell viability / cytotoxicity by sulforhodamine B (SRB) assay in A375 cells. The procedure: Each study was performed three times independently.
The subject of data set [8] is A375-DR cells. Kind of data set: SRB cytotoxicity in dabrafenib resistant A375-DR cells. The format is cell-based. Conditions: 72 hours. The procedure: as §1, §2
Data set [9] relates to Mcl-1. Description: Western blotting for Mcl-1 expression in melanoma cells treated with dabrafenib and trametinib. The format is cell-based. Conditions: A375, SK-MEL-28, SK-MEL-5 and WM-239 cells, 72 hours; dabrafenib 10 nM. The procedure:
as §1
A combination of BRAF inhibitor (dabrafenib) and MEK1/2 inhibitor (trametinib) for the treatment of late phase malignant melanoma has been approved by the FDA.

Data set [10] deals with A375-R cells. Kind of data set: Tumor therapy: A375-R xenografts in athymic nude mice. It counts as in vivo. As to the method: (§3) FIG. 5A, A375-R cells were injected subcutaneously in female athymic nude mice. Once the tumor volume reach 150 mm3, the mice were randomly divided into 4 groups (n=7 in each group) and the treatment was started as described under ‘Material and Method’ section. Tumor volumes were measure thrice a week by vernier calipers and the values were plotted as Mean±S.E.M. FIG. 5B, at day 30, the mice were sacrifice, tumors were extracted and weighed. The values are plotted as mean±S.D. *, p<0.05 as compared to control. #, p<0.05 as compared to vemurafenib treated group. $, p<0.05 as compared to TW-37 treated group. […] FIG. 5D, Formalin fixed paraffin embedded tumor sections were subjected to immunohistochemistry. Representative images of the tumor sections stained with Mcl-1, p-ERK and cleaved caspase 3.
FIGS. 6A to 6D show silencing Mcl-1 suppresses the growth of melanoma tumors resistance to vemurafenib. FIG. 6A, A375-R cells were injected subcutaneously in female athymic nude mice. Once the tumor volume reach 150 mm3, the mice were randomly divided into 4 groups (n=6 in each group) and the treatment was started as described under ‘Material and Method’ section. Tumor volumes were measure thrice a week by vernier calipers and the values were plotted as Mean±S.E.M. FIG. 6B, at day 30, the mice were sacrifice, tumors were extracted and weighed. The values are plotted as mean±S.D. *, p<0.05 as compared to control. #, p<0.05 as compared to vemurafenib treated group. $, p<0.05 as compared to TW-37 treated group. […] FIG. 6D, Formalin fixed paraffin embedded tumor sections were subjected to immunohistochemistry. Representative images of the tumor sections stained with Mcl-1, p-ERK and cleaved caspase 3.
Tumor Therapy. All the studies involving animals were approved by the Institutional Animal Care and Use Committee. About 5-6 weeks old athymic nude mice (Charles River, Wilmington, Mass., USA) were allowed to acclimatize for one week prior to the beginning of the studies. Mice were injected subcutaneously with 3.5×10^6 A375-R cells. When the tumor volume reached to 150 mm3, mice were randomly segregated into several groups with 6-7 mice in each group. Vemurafenib, formulated as MBP was suspended at a desired concentration in a vehicle containing 2% Klucel LF and adjusted to pH 4 with HCl, was given at a dose of 25 mg/kg twice a day through oral gavage. TW-37 in PBS/ethanol/Tween 80 was administered intraperitonially at a dose of 30 mg/kg thrice a week. Mcl-1 or scrambled siRNA was administered twice a week directly into the tumors (intra-tumoral injection) as described by the inventors previously (27). Tumor measurements were taken thrice a week by vernier calipers and the volume was calculated by the formula V=length*(breadth)2/2 as previously described (28-30). At the end of the study, animals were sacrificed and tumors were excised and fixed in formalin for immunohistochemistry or flash frozen in liquid nitrogen for western blotting analysis as described previously by the inventors (31).

In data set [11] the test system is Mcl-1. Kind of data set: Western blotting and immunohistochemistry of A375-R tumors. Also on record: species or system mice. The settings on record: A375-R tumors at termination of the in vivo studies, compared with control group. As to the method:
as §3
FIGS. 6A to 6D show silencing Mcl-1 suppresses the growth of melanoma tumors resistance to vemurafenib. FIG. 6A, A375-R cells were injected subcutaneously in female athymic nude mice. […]
Tumor Therapy. […] Tumor measurements were taken thrice a week by vernier calipers and the volume was calculated by the formula V=length*(breadth)2/2 as previously described (28-30). […]
Immunohistochemistry. Expression of Mcl-1, Cleaved Caspase 3 and p-ERK in tumor samples were analyzed by immunohistochemistry in paraffin sections five mice from each group. […]

For data set [12], the system named is SK-MEL-28-R cells. Description: SRB cell survival in vemurafenib resistant SK-MEL-28-R cells. It counts as cell-based. Conditions: SK-MEL-28-R cells, 500 nM TW-37 alone. As to the method:
(§4) Each study was performed three times independently. Mcl-1 inhibitor overcomes vemurafenib resistance in melanoma cells. […] The cell survival was evaluated by sulforhodamine B assay.
(§5) FIGS. 4A to 4D show the silencing Mcl-1 reverses vemurafenib resistance. […] The cell survival was evaluated by sulforhodamine B assay.
as §2
(§6) Mcl-1 silencing. Silencing of Mcl-1 was achieved according to the protocol described by the inventors (27). Briefly, 0.3×10^6 cells were plated in OPTI-MEM without antibiotics and transfected with either Mcl-1 siRNA or scrambled siRNA. Complexes were prepared by incubating […] siRNA with 8 μl siPORT transfection reagent in 200 μl OPTI-MEM media without serum or antibiotic for 20 minutes. These complexes were then added to the cells. Six hours after transfection, complexes were replaced with fresh medium.

Data set [13] deals with A375-R cells. Kind of data set: SRB cell survival in vemurafenib resistant A375-R cells. The format is cell-based. Conditions: A375-R cells, 500 nM TW-37 alone. The procedure:
as §4, §5, §2, §6

Regarding `COc1cc(/C=C/C(=O)N2CCC=CC2=O)cc(OC)c1OC` [PL], the “Inhibition of Mcl-1 (western blotting)” value in data set [1] is given as “inhibits Mcl-1”.
With `CC(C)(C)c1nc(-c2cccc(NS(=O)(=O)c3c(F)cccc3F)c2F)c(-c2ccnc(N)n2)s1` [dabrafenib], the negative-log IC50 (pIC50) (commonly the negative decadic logarithm of the IC50, by convention in mol/L) in data set [2] (read-out: IC50 of dabrafenib, 72 hours) was 8.70; in data set [3], below 7.00; in data set [5] it was below 7.00; in data set [6] it was 8.22; in data set [7] (Homo sapiens, A-375, 72 h, read-out: IC50 of dabrafenib), 8.30; in data set [8] it was below 7.00. Besides, the “Reduction in cell survival upon Mcl-1 overexpression” value in data set [4] is given as “completely blocked the effect”. The “Expression of Mcl-1 (western blotting)” value in [9] is “significantly induced the expression of Mcl-1”.
`CC(C)c1ccccc1Cc1cc(C(=O)Nc2ccc(S(=O)(=O)c3ccccc3C(C)(C)C)cc2)c(O)c(O)c1O` [TW-37]: the Average tumor volume in data set [10] (day 30, vemurafenib 25 mg/kg twice a day oral, TW-37 30 mg/kg i.p. thrice a week, Mcl-1 siRNA intratumoral twice a week) is 870±187.8 mm3. Further, the “Reduction in tumor growth (tumor volume) as compared to control” value in data set [10] (day 30, versus control group) came to 48%. Further, in data set [10] (day 30, versus vemurafenib group), the “Reduction in tumor growth (tumor volume) as compared to vemurafenib treated group” value is recorded as 46%. Moreover, the “Reduction of tumor weight as compared to control” value in data set [10] (tumors weighed at day 30, versus control) worked out at 47%. Further, the “Reduction of tumor weight as compared to vemurafenib treated group” value in [10] (tumors weighed at day 30, versus vemurafenib group) is 48%. Moreover, the “Decrease of cell viability” value in data set [2] (500 nM TW-37 alone) amounted to 58%; in [7] (A375 cells, 500 nM TW-37 alone) it was 60%. The “Expression of Mcl-1 in tumors (western blotting and immunohistochemistry)” value in [11] is on record as “diminished expression of Mcl-1”. The same molecule displayed a Reduction of growth in data set [12] of 25%. Besides, in [13], the “Decrease of cell survival” value is listed as 25%.
